# Source: US20070128217A1 (priority 2003, published 2007)
# How the values were obtained:
# [1] = tested on: antibodies in sera from SARS patients (sera 1a, 1b, 2, 6, 37, 62, London, SARS-yellow, SARS-green); assay type: binding, human; parameters: Binding of serum 6 to linear peptides of protein X1 of SARS-CoV Urbani / Binding of serum 37 to linear peptides of protein X1 of SARS-CoV Urbani / Binding of serum 6 to looped/cyclic peptide (PEPSCAN-ELISA) / Binding of serum 37 to looped/cyclic peptide (PEPSCAN-ELISA) / Binding of serum 37 to looped/cyclic peptides of protein X1 of SARS-CoV Urbani / Binding of serum 6 to linear peptides of protein X2 / Binding of serum 37 to linear peptides of protein X2 / Binding of serum 37 to looped/cyclic peptides of protein X2 of SARS-CoV Urbani / Binding of serum 6 to linear peptides of protein M of SARS-CoV Urbani / Binding of serum 37 to linear peptides of protein M of SARS-CoV Urbani / Binding of serum 6 to looped/cyclic peptides of protein M of SARS-CoV Urbani / Binding of serum 37 to looped/cyclic peptides of protein M of SARS-CoV Urbani / Binding of serum 6 to linear peptides of protein X3 of SARS-CoV Urbani / Binding of serum 37 to linear peptides of protein X3 of SARS-CoV Urbani / Binding of serum 37 to looped/cyclic peptides of protein X3 of SARS-CoV Urbani / Binding of serum 6 to linear peptides of protein X4 of SARS-CoV Urbani / Binding of serum 37 to linear peptides of protein X4 of SARS-CoV Urbani / Binding of serum 37 to looped/cyclic peptides of protein X4 of SARS-CoV Urbani / Binding of serum 6 to linear peptides of protein X5 of SARS-CoV Urbani / Binding of serum 37 to linear peptides of protein X5 of SARS-CoV Urbani / Binding of serum 37 to looped/cyclic peptides of protein X5 of SARS-CoV Urbani / Binding of serum 6 to linear peptides of protein N of SARS-CoV Urbani / Binding of serum 37 to linear peptides of protein N of SARS-CoV Urbani / Binding of serum 6 to linear peptide (PEPSCAN-ELISA) / Binding of serum 1a to looped/cyclic peptides of protein N of SARS-CoV Urbani / Binding of serum 1b to looped/cyclic peptides of protein N of SARS-CoV Urbani / Binding of serum 2 to looped/cyclic peptides of protein N of SARS-CoV Urbani / Binding of serum 6 to looped/cyclic peptides of protein N of SARS-CoV Urbani / Binding of serum 37 to looped/cyclic peptides of protein N of SARS-CoV Urbani / Binding of serum 62 to looped/cyclic peptides of protein N of SARS-CoV Urbani / Binding of serum London to looped/cyclic peptides of protein N of SARS-CoV Urbani / Binding of serum SARS-green to looped/cyclic peptides of protein N of SARS-CoV Urbani: unit not given here
# [2] = tested on: rabbit serum obtained by immunizing a rabbit with the SARS-CoV strain Frankfurt 1; assay type: binding; parameters: Binding of a rabbit serum to linear peptides / Binding of a rabbit serum to looped peptides / Rabbit serum linear peptides / Rabbit serum looped peptides / Binding of a rabbit serum to linear peptides of protein N of SARS-CoV Urbani (Rabbit serum linear peptides) / Binding of a rabbit serum to looped/cyclic peptides of protein N of SARS-CoV Urbani (Rabbit serum looped peptides): unit not given here
# [3] = tested on: control sera (pooled serum of ten healthy LUMC hospital workers; commercial negative donor pooled serum from the Dutch bloodbank); assay type: binding, human; parameters: Binding of Control serum LUMC to linear peptides / Binding of Control serum Blood-bank to linear peptides / Binding of Control serum LUMC to looped peptides / Binding of Control Serum Blood-Bank to Looped peptides / Binding of Control serum LUMC to linear peptides of the protein M of SARS-CoV Urbani / Binding of Control serum Blood-bank to linear peptides of the protein M of SARS-CoV Urbani / Binding of Control serum LUMC to looped peptides of the protein M of SARS-CoV Urbani / Binding of Control Serum Blood-Bank to Looped peptides of the protein M of SARS-CoV Urbani: unit not given here
sequence,measurement,setting,value
WSFNPETNILLNVPL,Binding of serum 1a to linear peptides of protein M of SARS-CoV Urbani,[1],1.5
same,Binding of serum 1a to looped/cyclic peptides of protein M of SARS-CoV Urbani,[1],0.8
same,Binding of serum 1b to linear peptides of protein M of SARS-CoV Urbani,[1],1.7
same,Binding of serum 1b to looped/cyclic peptides of protein M of SARS-CoV Urbani,[1],0.5
same,Binding of serum 2 to linear peptides of protein M of SARS-CoV Urbani,[1],1.3
same,Binding of serum 2 to looped/cyclic peptides of protein M of SARS-CoV Urbani,[1],0.6
same,Binding of serum 6 to linear peptides of protein M of SARS-CoV Urbani,[1],1.0
same,Binding of serum 6 to looped/cyclic peptides of protein M of SARS-CoV Urbani,[1],0.5
same,Binding of serum 37 to linear peptides of protein M of SARS-CoV Urbani,[1],0.9
same,Binding of serum 37 to looped/cyclic peptides of protein M of SARS-CoV Urbani,[1],0.7
same,Binding of serum 62 to linear peptides of protein M of SARS-CoV Urbani,[1],1.3
same,Binding of serum 62 to looped/cyclic peptides of protein M of SARS-CoV Urbani,[1],0.7
same,Binding of serum London to linear peptides of protein M of SARS-CoV Urbani,[1],1.0
same,Binding of serum London to looped/cyclic peptides of protein M of SARS-CoV Urbani,[1],0.2
same,Binding of serum SARS-green to linear peptides of protein M of SARS-CoV Urbani,[1],1.5
same,Binding of serum SARS-green to looped/cyclic peptides of protein M of SARS-CoV Urbani,[1],0.2
same,Binding of serum SARS-yellow to linear peptides of protein M of SARS-CoV Urbani,[1],1.1
same,Binding of serum SARS-yellow to looped/cyclic peptides of protein M of SARS-CoV Urbani,[1],0.8
same,Rabbit serum linear peptides,[2],0.3
same,Rabbit serum looped peptides,[2],0.3
same,Binding of Control Serum Blood-Bank to Looped peptides of the protein M of SARS-CoV Urbani,[3],0.6
same,Binding of Control serum Blood-bank to linear peptides of the protein M of SARS-CoV Urbani,[3],1.3
same,Binding of Control serum LUMC to linear peptides of the protein M of SARS-CoV Urbani,[3],1.5
same,Binding of Control serum LUMC to looped peptides of the protein M of SARS-CoV Urbani,[3],0.8
FLFLAWIMLLQFAYS,Binding of serum 1a to linear peptides of protein M of SARS-CoV Urbani,[1],0.7
same,Binding of serum 1a to looped/cyclic peptides of protein M of SARS-CoV Urbani,[1],0.8
same,Binding of serum 1b to linear peptides of protein M of SARS-CoV Urbani,[1],0.6
same,Binding of serum 1b to looped/cyclic peptides of protein M of SARS-CoV Urbani,[1],0.7
same,Binding of serum 2 to linear peptides of protein M of SARS-CoV Urbani,[1],0.4
same,Binding of serum 2 to looped/cyclic peptides of protein M of SARS-CoV Urbani,[1],0.6
same,Binding of serum 6 to linear peptides of protein M of SARS-CoV Urbani,[1],0.4
same,Binding of serum 6 to looped/cyclic peptides of protein M of SARS-CoV Urbani,[1],0.9
same,Binding of serum 37 to linear peptides of protein M of SARS-CoV Urbani,[1],0.4
same,Binding of serum 37 to looped/cyclic peptides of protein M of SARS-CoV Urbani,[1],0.7
same,Binding of serum 62 to linear peptides of protein M of SARS-CoV Urbani,[1],0.4
same,Binding of serum 62 to looped/cyclic peptides of protein M of SARS-CoV Urbani,[1],0.8
same,Binding of serum London to linear peptides of protein M of SARS-CoV Urbani,[1],0.3
same,Binding of serum London to looped/cyclic peptides of protein M of SARS-CoV Urbani,[1],0.3
same,Binding of serum SARS-green to linear peptides of protein M of SARS-CoV Urbani,[1],0.4
same,Binding of serum SARS-green to looped/cyclic peptides of protein M of SARS-CoV Urbani,[1],0.3
same,Binding of serum SARS-yellow to linear peptides of protein M of SARS-CoV Urbani,[1],0.2
same,Binding of serum SARS-yellow to looped/cyclic peptides of protein M of SARS-CoV Urbani,[1],0.4
same,Rabbit serum linear peptides,[2],0.2
same,Rabbit serum looped peptides,[2],0.3
same,Binding of Control Serum Blood-Bank to Looped peptides of the protein M of SARS-CoV Urbani,[3],0.8
same,Binding of Control serum Blood-bank to linear peptides of the protein M of SARS-CoV Urbani,[3],0.5
same,Binding of Control serum LUMC to linear peptides of the protein M of SARS-CoV Urbani,[3],0.5
same,Binding of Control serum LUMC to looped peptides of the protein M of SARS-CoV Urbani,[3],0.7
DLFMRFFTLGSITAQ,Binding of serum 1a to linear peptides of protein X1 of SARS-CoV Urbani,[1],0.7
same,Binding of serum 1a to looped/cyclic peptide (PEPSCAN-ELISA),[1],0.5
same,Binding of serum 1b to linear peptides of protein X1 of SARS-CoV Urbani,[1],0.5
same,Binding of serum 1b to looped/cyclic peptide (PEPSCAN-ELISA),[1],0.3
same,Binding of serum 2 to linear peptides of protein X1 of SARS-CoV Urbani,[1],0.4
same,Binding of serum 2 to looped/cyclic peptide (PEPSCAN-ELISA),[1],0.3
same,Binding of serum 6 to linear peptides of protein X1 of SARS-CoV Urbani,[1],0.1
same,Binding of serum 6 to looped/cyclic peptide (PEPSCAN-ELISA),[1],0.3
same,Binding of serum 37 to linear peptides of protein X1 of SARS-CoV Urbani,[1],0.6
same,Binding of serum 37 to looped/cyclic peptide (PEPSCAN-ELISA),[1],0.5
same,Binding of serum 62 to linear peptides of protein X1 of SARS-CoV Urbani,[1],0.5
same,Binding of serum 62 to looped/cyclic peptide (PEPSCAN-ELISA),[1],0.5
same,Binding of serum London to linear peptides of protein X1 of SARS-CoV Urbani,[1],0.2
same,Binding of serum London to looped/cyclic peptide (PEPSCAN-ELISA),[1],0.2
same,Binding of serum SARS-green to linear peptides of protein X1 of SARS-CoV Urbani,[1],0.2
same,Binding of serum SARS-green to looped/cyclic peptide (PEPSCAN-ELISA),[1],0.2
same,Binding of serum SARS-yellow to linear peptides of protein X1 of SARS-CoV Urbani,[1],0.4
same,Binding of serum SARS-yellow to looped/cyclic peptide (PEPSCAN-ELISA),[1],0.2
same,Binding of a rabbit serum to linear peptides,[2],0.1
same,Binding of a rabbit serum to looped peptides,[2],0.3
same,Binding of Control Serum Blood-Bank to Looped peptides,[3],0.5
same,Binding of Control serum Blood-bank to linear peptides,[3],0.6
same,Binding of Control serum LUMC to linear peptides,[3],0.6
same,Binding of Control serum LUMC to looped peptides,[3],0.5
